Experimental data from US20250179059A1 (The Regents of the University of California, priority 2021, published 2025).
Read-outs that look alike come from different tables or passages of the source.

Tests used:
[1] = target: T1, human BRD4 bromodomain II (Homo sapiens, UniProt O60885); test: Bromodomain binding assay (AlphaScreen), BRD4 BDII
T1 construct: human BRD4 bromodomain II [based on Genbank NM_058243, residues 349-460]; host or cells: E. coli
How it was run: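 AlphaScreen competition: His6-BRD4 BDI (aa 44-170) or BDII (aa 349-460) vs biotin-H4(1-21) K5/K8/K12/K16Ac peptide; Ni-chelate acceptor/streptavidin donor beads. HEPES pH 7.5, NaCl, CHAPS, BSA, 1% DMSO; RT. 10-pt 3-fold titration, % peptide binding fitted → IC50.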

[2] = tested on: human SKM-1 acute myeloid leukemia cells; test: SKM-1 antiproliferation cell-based assay (ATPlite); conditions: Homo sapiens
How it was run: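 Log-phase cells in RPMI 1640/15% FBS were seeded at 34722 cells/mL and exposed for 4 days to nine-concentration DMSO serial dilutions in triplicate. Viability was read as ATP luminescence (ATPlite 1step), and IC50 values came from variable-slope non-linear regression.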

[3] = AlphaScreen assay, Table C2, read-out: BRD4 BDII IC50
[4] = SKM-1, 96 h, SKM-1 antiproliferation assay, 4 days, Table C2
[5] = BRD4 BDII AlphaScreen assay, read-out: BRD4 BD2 IC50
[6] = SKM-1, SKM-1 antiproliferation assay

| SMILES | IC50 [1, 3] | GI50 [2, 4] | IC50 [1, 5] | GI50 [2, 6] |
| --- | --- | --- | --- | --- |
| Cc1cc(-c2cc(F)cc(-c3ccc(-n4ccn(C)c4=O)c(Cl)c3)c2O)cc(N2CCN(C(C)(C)C)CC2)c1 [Example 828, 1-(3″-(4-(tert-butyl)piperazin-1-yl)-3-chloro-5′-fluoro-2′-hydroxy-5″-methyl-[1,1′:3′,1″-terphenyl]-4-yl)-3-methyl-1H-imidazol-2(3H)-one] | 0.01 to 1 nM | 0.3 to 30 nM | – | – |
| COCc1ncc(-c2cc(F)cc(-c3ccc(N4CCN(C)C4=O)c(Cl)c3)c2O)cc1N1CCNCC1 [Example 399, 1-(3-chloro-5′-fluoro-2′-hydroxy-3′-(6-(methoxymethyl)-5-(piperazin-1-yl)pyridin-3-yl)-[1,1′-biphenyl]-4-yl)-3-methylimidazolidin-2-one] | 1 to 10 nM | 30 to 300 nM | – | – |
| CC(=O)Nc1ccc(-c2cccc(-c3ccc(C(F)(F)F)c(N4CCNCC4)c3)c2O)cc1F [Example 336, N-(3-fluoro-2′-hydroxy-3″-(piperazin-1-yl)-4″-(trifluoromethyl)-[1,1′:3′,1″-terphenyl]-4-yl)acetamide acetate] | 10 to 100 nM | 300 to 3000 nM | – | – |
| CC(C)N1CC2CN(c3cc(-c4cc(F)cc(-c5ccc(-n6ccn(C)c6=O)c(Cl)c5)c4O)ccn3)CC21 (stereo not shown) [Example 747, 1-(3-chloro-5′-fluoro-2′-hydroxy-3′-(2-(6-isopropyl-3,6-diazabicyclo[3.2.0]heptan-3-yl)pyridin-4-yl)-[1,1′-biphenyl]-4-yl)-3-methyl-1H-imidazol-2(3H)-one] | 0.01 to 1 nM | 0.3 to 30 nM | – | – |
| Cc1cc(-c2ccnc(N3CCN[C@H](C)C3)c2)c(O)c(-c2ccc(-n3ccn(C)c3=O)c(Cl)c2)c1 [Example 500, (R)-1-(3-chloro-2′-hydroxy-5′-methyl-3′-(2-(3-methylpiperazin-1-yl)pyridin-4-yl)-[1,1′-biphenyl]-4-yl)-3-methyl-1H-imidazol-2(3H)-one] | 1 to 10 nM | 0.3 to 30 nM | – | – |
| Cn1ccn(-c2ccc(-c3cc(F)cc(-c4ccc5ccc(C(C)(C)O)cc5c4)c3O)cc2Cl)c1=O [Example 801, 1-(3-chloro-5′-fluoro-2′-hydroxy-3′-(7-(2-hydroxypropan-2-yl)naphthalen-2-yl)-[1,1′-biphenyl]-4-yl)-3-methyl-1H-imidazol-2(3H)-one] | 1 to 10 nM | 30 to 300 nM | – | – |
| CCc1cc(-c2ccnc(N3CCNCC3)c2)c(O)c(-c2ccc(N3CCN(C)C3=O)c(Cl)c2)c1 [Example 311, l-(3-chloro-5′-ethyl-2′-hydroxy-3′-(2-(piperazin-1-yl)pyridin-4-yl)-[1,1′-biphenyl]-4-yl)-3-methylimidazolidin-2-one] | 1 to 10 nM | 300 to 3000 nM | – | – |
| Cn1ccn(-c2ccc(-c3cc(F)cc(-c4ccnc(N5CCN6CCCCC6C5)c4)c3O)cc2Cl)c1=O (stereo not shown) [Example 624, 1-(3-chloro-5′-fluoro-3′-(2-(hexahydro-1H-pyrido[1,2-a]pyrazin-2(6H)-yl)pyridin-4-yl)-2′-hydroxy-[1,1′-biphenyl]-4-yl)-3-methyl-1H-imidazol-2(3H)-one] | 0.01 to 1 nM | 30 to 300 nM | – | – |
| Cn1ccn(-c2ccc(-c3cc(F)cc(-c4cccc(-c5ccc(N)cc5)c4)c3O)cc2Cl)c1=O [Example 855] | – | – | 10 to 100 nM | 30 to 300 nM |
| CC(=O)Nc1ccc(-c2cccc(-c3cc(C)nc(N4CCNCC4)c3)c2O)cc1F [Example 244, N-(3-fluoro-2′-hydroxy-3′-(2-methyl-6-(piperazin-1-yl)pyridin-4-yl)-[1,1′-biphenyl]-4-yl)acetamide] | 1 to 10 nM | 30 to 300 nM | – | – |
| COc1ncc(-c2cc(F)cc(-c3ccc(-n4ccn(C)c4=O)c(Cl)c3)c2O)cc1N1CC(O)(CO)C1 [Example 838, 1-(3-chloro-5′-fluoro-2′-hydroxy-3′-(5-(3-hydroxy-3-(hydroxymethyl)azetidin-1-yl)-6-methoxypyridin-3-yl)-[1,1′-biphenyl]-4-yl)-3-methyl-1H-imidazol-2(3H)-one] | 0.01 to 1 nM | 30 to 300 nM | – | – |
| CN(C)c1ncc(-c2nccc(-c3ccc(-n4ccn(C)c4=O)c(Cl)c3)c2O)cc1N1CCN(C(C)(C)C)CC1 [Example 988, 1-(4-(5′-(4-(tert-butyl)piperazin-1-yl)-6′-(dimethylamino)-3-hydroxy-[2,3′-bipyridin]-4-yl)-2-chlorophenyl)-3-methyl-1H-imidazol-2(3H)-one] | – | – | 1 to 10 nM | 0.3 to 30 nM |
| Cn1ccn(-c2ccc(-c3cc(F)cc(-c4ccnc(N5CCN(CC6CCC6)CC5)c4)c3O)cc2Cl)c1=O [Example 646, 1-(3-chloro-3′-(2-(4-(cyclobutylmethyl)piperazin-1-yl)pyridin-4-yl)-5′-fluoro-2′-hydroxy-[1,1′-biphenyl]-4-yl)-3-methyl-1H-imidazol-2(3H)-one] | 0.01 to 1 nM | 0.3 to 30 nM | – | – |
| Cn1ccn(-c2ccc(-c3cc(F)cc(-c4ccnc(N5CCN[C@H](CC(=O)O)C5)c4)c3O)cc2Cl)c1=O [Example 653] | 0.01 to 1 nM | 300 to 3000 nM | – | – |
| COc1cc(-c2cc(F)cc(-c3ccc(-n4ccn(C)c4=O)c(Cl)c3)c2O)cc(N2CCN(C(C)C)CC2)n1 [Example 702, 1-(3-chloro-5′-fluoro-2′-hydroxy-3′-(2-(4-isopropylpiperazin-1-yl)-6-methoxypyridin-4-yl)-[1,1′-biphenyl]-4-yl)-3-methyl-1H-imidazol-2(3H)-one] | 0.01 to 1 nM | 0.3 to 30 nM | – | – |
| C[C@@H]1CN(c2cc(-c3cc(F)cc(-c4ccc(-n5ccn(C)c5=O)c(Cl)c4)c3O)cn(CCCO)c2=O)CCN1 [Example 630, (R)-5-(3′-chloro-5-fluoro-2-hydroxy-4′-(3-methyl-2-oxo-2,3-dihydro-IH-imidazol-1-yl)-[1,1′-biphenyl]-3-yl)-1-(3-hydroxypropyl)-3-(3-methylpiperazin-1-yl)pyridin-2(1H)-one] | 0.01 to 1 nM | 30 to 300 nM | – | – |
| CC(=O)Nc1ccc(-c2cccc(-c3cc(N)nc(N4CCNCC4)c3)c2O)cc1F [Example 348, N-(3′-(2-amino-6-(piperazin-1-yl)pyridin-4-yl)-3-fluoro-2′-hydroxy-[1,1′-biphenyl]-4-yl)acetamide] | 1 to 10 nM | 30 to 300 nM | – | – |
| Cn1ccn(-c2ccc(-c3cc(F)cc(-c4cc(NC(=O)C5CC5)nc(N5CC[C@H](N)C5)c4)c3O)cc2Cl)c1=O [Example 525, (S)-N-(6-(3-aminopyrrolidin-1-yl)-4-(3′-chloro-5-fluoro-2-hydroxy-4′-(3-methyl-2-oxo-2,3-dihydro-1H-imidazol-1-yl)-[1,1′-biphenyl]-3-yl)pyridin-2-yl)cyclopropanecarboxamide] | 1 to 10 nM | 0.3 to 30 nM | – | – |
| Cn1ccn(-c2ccc(-c3cc(F)cc(-c4cc(F)cc(N5CCN(C(C)(C)C)CC5)c4)c3O)cc2Cl)c1=O [Example 754, 1-(3″-(4-(tert-butyl)piperazin-1-yl)-3-chloro-5′,5″-difluoro-2′-hydroxy-[1,1′:3′,1″-terphenyl]-4-yl)-3-methyl-1H-imidazol-2(3H)-one] | 0.01 to 1 nM | 0.3 to 30 nM | – | – |
| CC(=O)Nc1ccc(-c2cccc(-c3cccc(N4CCN[C@H](C)C4)c3)c2O)cc1F [Example 193, (R)-N-(3-fluoro-2′-hydroxy-3″-(3-methylpiperazin-1-yl)-[1,1′:3′,1″-terphenyl]-4-yl)acetamide] | 1 to 10 nM | 300 to 3000 nM | – | – |
| [2H]C([2H])([2H])n1ccn(-c2ccc(-c3cc(C)nc(-c4cccc(N5CCN(C(C)(C)C)CC5)c4)c3O)cc2Cl)c1=O [Example 991, 1-(4-(2-(3-(4-(tert-Butyl)piperazin-1-yl)phenyl)-3-hydroxy-6-methylpyridin-4-yl)-2-chlorophenyl)-3-(methyl-d3)-1,3-dihydro-2H-imidazol-2-one] | – | – | 1 to 10 nM | 0.3 to 30 nM |
| Cn1ccn(-c2ccc(-c3cc(F)cc(-c4ccnc(N5C[C@@H](O)[C@@H](O)C5)c4)c3O)cc2Cl)c1=O [Example 739, 1-(3-chloro-3′-(2-((3S,4R)-3,4-dihydroxypyrrolidin-1-yl)pyridin-4-yl)-5′-fluoro-2′-hydroxy-[1,1′-biphenyl]-4-yl)-3-methyl-1H-imidazol-2(3H)-one] | 0.01 to 1 nM | 0.3 to 30 nM | – | – |
| CN1CCN(c2cc(-c3cc(F)cc(-c4ccc(-n5ccn(C)c5=O)c(Cl)c4)c3O)ccn2)CC1 [Example 430, 1-(3-chloro-5′-fluoro-2′-hydroxy-3′-(2-(4-methylpiperazin-1-yl)pyridin-4-yl)-[1,1′-biphenyl]-4-yl)-3-methyl-1H-imidazol-2(3H)-one] | 0.01 to 1 nM | 0.3 to 30 nM | – | – |
| Cn1ccn(-c2ccc(-c3cc(F)cc(-c4ccnc(N5CCC(C)(C(=O)O)C5)c4)c3O)cc2Cl)c1=O (stereo not shown) [Example 769, 1-(4-(3′-chloro-5-fluoro-2-hydroxy-4′-(3-methyl-2-oxo-2,3-dihydro-1H-imidazol-1-yl)-[1,1′-biphenyl]-3-yl)pyridin-2-yl)-3-methylpyrrolidine-3-carboxylic acid] | 1 to 10 nM | 300 to 3000 nM | – | – |
| C[C@@H]1CN(c2cncc(-c3cccc(-c4ccc(N5CCCC5=O)c(F)c4)c3O)c2)CCN1 [Example 264, (R)-1-(3-fluoro-2′-hydroxy-3′-(5-(3-methylpiperazin-1-yl)pyridin-3-yl)-[1,1′-biphenyl]-4-yl)pyrrolidin-2-one] | 1 to 10 nM | 30 to 300 nM | – | – |
| Cc1cc(-c2cc(F)cc(-c3ccc(-n4ccn(C)c4=O)c(Cl)c3)c2O)cc(N2CC[C@H](N)C2)n1 [Example 517, (S)-1-(3′-(2-(3-aminopyrrolidin-1-yl)-6-methylpyridin-4-yl)-3-chloro-5′-fluoro-2′-hydroxy-[1,1′-biphenyl]-4-yl)-3-methyl-1H-imidazol-2(3H)-one] | 0.01 to 1 nM | 0.3 to 30 nM | – | – |
